The text below walks through data of patent US20250041429A1, “COMPOUND HAVING BTK PROTEIN DEGRADATION ACTIVITY, AND MEDICAL USES THEREOF” (UBIX THERAPEUTICS, INC., priority 2021, published 2025).

The test has as its target T1, BTK protein (Homo sapiens, UniProt Q06187).
T1 construct: endogenous in cells; host or cells: TMD-8 cells
In words: Measurement of BTK protein degradation ability in TMD-8 cells (Western blotting). Format: cell-based. The settings on record: harvested after 24 hours; for BTK degradation (%) 10 nM: compound 10 nM; for BTK degradation (%) 100 nM: compound 100 nM; for BTK degradation (%) 1 nM: compound 1 nM. As for the experimental part:
TMD-8, RAMOS, or 293T BTK MUT (C481S) cells were treated with the synthesized compounds, and then the amount of BTK protein present in the cells was measured using Western blotting detection. The protocol for the experiment conducted using TMD-8 cells was as follows:
[Culture] TMD-8 cells were resuspended in RPMI1640 MEDIUM (Hyclone, SH30027.01), 10% FBS (Hyclone, SV30207.02), and 1% Penicillin-streptomycin (Welgene, LS 202-02) media, and 1 mL of this suspension was seeded in a 12-well plate at a cell concentration of 1×10^6/mL.
[Compound treatment] The 12-well plate was treated as follows: The 10 mM stock was serially diluted 1/10 with DMSO (3 μL+27 μL DMSO), and cells were treated with compounds at final concentrations of 0.1, 1, 10 μM or 0.0001, 0.001, 0.01, 0.1 μM, and harvested after 24 hours. In the negative control group, DMSO diluted 1/10 was added to the media. (3 μL DMSO+27 μL media)
[Harvest] Each well was pipetted with a 1 mL pipette, collected in a 1.5 mL microtube, and centrifuged (500 g, 5 min, 4° C.). After removing the supernatant, it was washed with PBS and centrifuged again (500 g, 5 min, 4° C.). The supernatant was removed and the pellet was collected.
[Cell lysis and Sample preparation] lysis buffer was prepared as follows: RIPA buffer (Biosesang, RC2038-050-00), 0.5 mM PMSF (SIGMA, P7626) and 1× Protease/Phosphatase Inhibitor (Cell signaling, 5872S) were added at 60-70 μL per well and left on ice for 30 minutes. (Vortexing at 0 and 30 minutes, respectively), followed by sonication (10 seconds pulse, 30 seconds rest, 5 cycles, 70% amplification) and centrifuge (15000 g, 15 min, 4° C.). Only the supernatant was collected and transferred to a new microtube. The samples were diluted by ½ with RIPA buffer in a 96-well plate. 200 μL of the mixture A:B=50:1 of the BCA Protein Assay Kit (iNtRON, 21071) was added each, stayed at 37° C. for 30 minutes, and cooled for 10 minutes. Afterwards, absorbance was measured at 562 nm using BioTek's SYNERGY H1 microplate reader. After making a sample by quantifying the protein using the measured value, it was boiled at 70° C. for 10 minutes. The sample buffer used at this time was a mixture of NuPAGE or Bolt 4× sample buffer (Invitrogen) and each 10× sample reducing agent according to the gel to be used. RIPA buffer was used for protein dilution.
[Western blotting detection method] The same amount of sample was loaded on NuPAGE or Bolt Bis-tris 4-12% gradient gel and run (200 V, 35 minutes). It was transferred to a […] NC membrane using Trans-blot Turbo (BIO-RAD) (1.3 A constant, 25 V limit, 15 minutes). For blocking, skim milk or Intercept Blocking Buffer (LI-COR, 927-60001): 0.1% TBST=1:1 was used at room temperature for 1 hour. Anti BTK Rabbit (1:1,000 in 5% skim milk/0.2% TBST, size: 77 kDa, Cell signaling Technology) was reacted at 4° C. for 16 hours or at room temperature for 2 hours. Anti GAPDH Rabbit (1:10,000 in 5% BSA/0.2% TBST, size: 36 kDa, GENETEX) and Anti β-actin mouse (1:10,000 in 5% BSA/0.2% TBST, RT, size: 43 kDa, GENETEX) were reacted at room temperature for 1 hour or 3 hours. The samples were washed 3 times with 0.5% TBST for 5 minutes each. Secondary antibodies, Anti-Rabbit IgG (1:5,000 in 5% Skim milk/TBST, CST), IRDye® 800CW Goat anti-Rabbit IgG Secondary Antibody (1:10,000 in 5% skim/TBST, RT 45 min), IRDye® 680RD Goat anti-Mouse IgG Secondary Antibody (1:10,000 in 5% skim/TBST, RT 45 min) were added depending on each sample and reacted for 45 minutes on a rocker at room temperature. The samples were washed 5 times with 0.5% TBST for 5 minutes each and detected with LI-COR's Odyssey. At this time, BTK was detected using SuperSignal West Pico PLUS Chemiluminescent Substrate or SuperSignal West femto Maximum Sensitivity Substrate, and house-keeping genes were detected as is.
(In general: In western blotting, separated proteins are transferred to a membrane and probed.)

T1 sequence (Q06187 whole entry): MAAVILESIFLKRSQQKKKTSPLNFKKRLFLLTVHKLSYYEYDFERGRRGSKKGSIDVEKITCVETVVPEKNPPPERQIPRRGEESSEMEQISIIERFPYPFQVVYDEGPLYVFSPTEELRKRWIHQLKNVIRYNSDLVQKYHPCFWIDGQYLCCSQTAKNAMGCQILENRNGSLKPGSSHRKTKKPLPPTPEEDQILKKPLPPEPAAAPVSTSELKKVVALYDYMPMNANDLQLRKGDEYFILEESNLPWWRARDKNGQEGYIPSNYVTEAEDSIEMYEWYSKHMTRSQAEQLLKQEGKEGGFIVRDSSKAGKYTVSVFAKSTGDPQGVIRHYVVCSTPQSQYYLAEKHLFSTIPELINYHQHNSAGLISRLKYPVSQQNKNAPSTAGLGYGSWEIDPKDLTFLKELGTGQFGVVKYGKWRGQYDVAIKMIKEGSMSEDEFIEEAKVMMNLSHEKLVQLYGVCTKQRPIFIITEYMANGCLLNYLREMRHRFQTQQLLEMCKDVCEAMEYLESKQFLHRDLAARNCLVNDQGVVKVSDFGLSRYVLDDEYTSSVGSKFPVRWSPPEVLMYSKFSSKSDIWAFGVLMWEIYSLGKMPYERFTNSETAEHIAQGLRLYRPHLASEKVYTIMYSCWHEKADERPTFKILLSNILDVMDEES

For the compound `Cc1cc(-c2ccnc(Nc3ccc4c(c3)CN(CC3CCN(c5ccc6c(c5)C(=O)N(C5CCC(=O)NC5=O)C6=O)CC3)CC4)n2)ccc1CNC(=O)N1CC(OC(C)C)C1` (stereo not drawn) [Example 1, N-(4-(2-((2-((1-(2-(2,6-dioxopiperidin-3-yl)-1,3-dioxoisoindolin-5-yl)piperidin-4-yl)methyl)-1,2,3,4-tetrahydroisoquinolin-7-yl)amino)pyrimidin-4-yl)-2-methylbenzyl)-3-isopropoxyazetidine-1-carboxamide], the “BTK degradation (%) 10 nM” value came to 92% and the “BTK degradation (%) 100 nM” value is 97.5%.

As for `Cc1cc(-c2ccnc(Nc3ccc4c(c3)CN(CC3CCN(c5ccc6c(c5)C(=O)N(C5CCC(=O)NC5=O)C6=O)CC3)CC4)n2)ccc1CNC(=O)c1cnn(C(C)(C)C)c1` (stereo not drawn) [Example 2, 1-(tert-butyl)-N-(4-(2-((2-((1-(2-(2,6-dioxopiperidin-3-yl)-1,3-dioxoisoindolin-5-yl)piperidin-4-yl)methyl)-1,2,3,4-tetrahydroisoquinolin-7-yl)amino)pyrimidin-4-yl)-2-methylbenzyl)-1H-pyrazole-4-carboxamide], the “BTK degradation (%) 10 nM” value is 84.5% and the “BTK degradation (%) 100 nM” value stood at 94%.

For the compound `Cc1cc(-c2ccnc(Nc3ccc4c(c3)CN(CC3CCN(c5ccc6c(c5)C(=O)N(C5CCC(=O)NC5=O)C6=O)CC3)CC4)n2)ccc1CNC(=O)c1cn(C(C)(C)C)nn1` (stereo not drawn) [Example 3, 1-(tert-butyl)-N-(4-(2-((2-((1-(2-(2,6-dioxopiperidin-3-yl)-1,3-dioxoisoindolin-5-yl)piperidin-4-yl)methyl)-1,2,3,4-tetrahydroisoquinolin-7-yl)amino)pyrimidin-4-yl)-2-methylbenzyl)-1H-1,2,3-triazole-4-carboxamide], the “BTK degradation (%) 10 nM” value turned out to be 84% and the “BTK degradation (%) 100 nM” value is 93%.

As to `Cc1c(NC(=O)N2CC(OC(C)C)C2)cc(F)cc1-c1ccnc(Nc2ccc3c(c2)CN(CC2CCN(c4ccc5c(c4)C(=O)N(C4CCC(=O)NC4=O)C5=O)CC2)CC3)n1` (stereo not drawn) [Example 4, N-(3-(2-((2-((1-(2-(2,6-dioxopiperidin-3-yl)-1,3-dioxoisoindolin-5-yl)piperidin-4-yl)methyl)-1,2,3,4-tetrahydroisoquinolin-7-yl)amino)pyrimidin-4-yl)-5-fluoro-2-methylphenyl)-3-isopropoxyazetidine-1-carboxamide], the “BTK degradation (%) 10 nM” value is recorded as −3.5% and the “BTK degradation (%) 100 nM” value was 29%.

Turning to `Cc1c(NC(=O)c2cnn(C(C)(C)C)c2)cc(F)cc1-c1ccnc(Nc2ccc3c(c2)CN(CC2CCN(c4ccc5c(c4)C(=O)N(C4CCC(=O)NC4=O)C5=O)CC2)CC3)n1` (stereo not drawn) [Example 5, 1-(tert-butyl)-N-(3-(2-((2-((1-(2-(2,6-dioxopiperidin-3-yl)-1,3-dioxoisoindolin-5-yl)piperidin-4-yl)methyl)-1,2,3,4-tetrahydroisoquinolin-7-yl)amino)pyrimidin-4-yl)-5-fluoro-2-methylphenyl)-1H-pyrazole-4-carboxamide], the “BTK degradation (%) 10 nM” value is listed as −12% and the “BTK degradation (%) 100 nM” value was −7%.

For `Cc1c(NC(=O)c2cn(C(C)(C)C)nn2)cc(F)cc1-c1ccnc(Nc2ccc3c(c2)CN(CC2CCN(c4ccc5c(c4)C(=O)N(C4CCC(=O)NC4=O)C5=O)CC2)CC3)n1` (stereo not drawn) [Example 6, 1-(tert-butyl)-N-(3-(2-((2-((1-(2-(2,6-dioxopiperidin-3-yl)-1,3-dioxoisoindolin-5-yl)piperidin-4-yl)methyl)-1,2,3,4-tetrahydroisoquinolin-7-yl)amino)pyrimidin-4-yl)-5-fluoro-2-methylphenyl)-1H-1,2,3-triazole-4-carboxamide], the “BTK degradation (%) 10 nM” value is on record as −2.5% and the “BTK degradation (%) 100 nM” value was determined as 10%.

For `Cc1cc(-c2ccnc(Nc3ccc(N4CCN(CC5CCN(c6ccc7c(c6)C(=O)N(C6CCC(=O)NC6=O)C7=O)CC5)CC4)cc3)n2)ccc1CNC(=O)N1CC(OC(C)C)C1` (stereo not drawn) [Example 7, N-(4-(2-((4-(4-((1-(2-(2,6-dioxopiperidin-3-yl)-1,3-dioxoisoindolin-5-yl)piperidin-4-yl)methyl)piperazin-1-yl)phenyl)amino)pyrimidin-4-yl)-2-methylbenzyl)-3-isopropoxyazetidine-1-carboxamide], the “BTK degradation (%) 10 nM” value was found to be 90% and the “BTK degradation (%) 100 nM” value stood at 98.5%.

Regarding `Cc1cc(-c2ccnc(Nc3ccc(N4CCN(CC5CCN(c6ccc7c(c6)C(=O)N(C6CCC(=O)NC6=O)C7=O)CC5)CC4)cc3)n2)ccc1CNC(=O)c1cnn(C(C)(C)C)c1` (stereo not drawn) [Example 8, 1-(tert-butyl)-N-(4-(2-((4-(4-((1-(2-(2,6-dioxopiperidin-3-yl)-1,3-dioxoisoindolin-5-yl)piperidin-4-yl)methyl)piperazin-1-yl)phenyl)amino)pyrimidin-4-yl)-2-methylbenzyl)-1H-pyrazole-4-carboxamide], the “BTK degradation (%) 10 nM” value is reported as 89.5% and the “BTK degradation (%) 100 nM” value is 97.5%.

`Cc1cc(-c2ccnc(Nc3ccc(N4CCN(CC5CCN(c6ccc7c(c6)C(=O)N(C6CCC(=O)NC6=O)C7=O)CC5)CC4)cc3)n2)ccc1CNC(=O)c1cn(C(C)(C)C)nn1` (stereo not drawn) [Example 9, 1-(tert-butyl)-N-(4-(2-((4-(4-((1-(2-(2,6-dioxopiperidin-3-yl)-1,3-dioxoisoindolin-5-yl)piperidin-4-yl)methyl)piperazin-1-yl)phenyl)amino)pyrimidin-4-yl)-2-methylbenzyl)-1H-1,2,3-triazole-4-carboxamide]: the “BTK degradation (%) 10 nM” value is 76.5% and the “BTK degradation (%) 100 nM” value was 96.5%.

Turning to `Cc1cc(-c2ccnc(Nc3ccc(N4CCN(CC5CCN(c6ccc7c(n6)CN(C6CCC(=O)NC6=O)C7=O)CC5)CC4)cc3)n2)ccc1CNC(=O)N1CC(OC(C)C)C1` (stereo not drawn) [Example 10, N-(4-(2-((4-(4-((1-(6-(2,6-dioxopiperidin-3-yl)-5-oxo-6,7-dihydro-5H-pyrrolo[3,4-b]pyridin-2-yl)piperidin-4-yl)methyl)piperazin-1-yl)phenyl)amino)pyrimidin-4-yl)-2-methylbenzyl)-3-isopropoxyazetidine-1-carboxamide], the “BTK degradation (%) 1 nM” value stood at 56%, the “BTK degradation (%) 10 nM” value turned out to be 94.5% and the “BTK degradation (%) 100 nM” value amounted to 98.5%.

Consider `Cc1cc(-c2ccnc(Nc3ccc(N4CCN(CC5CN(c6ccc7c(c6)C(=O)N(C6CCC(=O)NC6=O)C7=O)C5)CC4)cc3)n2)ccc1CNC(=O)N1CC(OC(C)C)C1` (stereo not drawn) [Example 11, N-(4-(2-((4-(4-((1-(2-(2,6-dioxopiperidin-3-yl)-1,3-dioxoisoindolin-5-yl)azetidin-3-yl)methyl)piperazin-1-yl)phenyl)amino)pyrimidin-4-yl)-2-methylbenzyl)-3-isopropoxyazetidine-1-carboxamide], for which the “BTK degradation (%) 1 nM” value amounted to 60%, the “BTK degradation (%) 10 nM” value was determined as 93.5% and the “BTK degradation (%) 100 nM” value came to 98.5%.
